Laboratory results as given in patent US20260256792A1, “TREATMENT OF CHRONIC SPONTANEOUS URTICARIA BY ADMINISTERING (R)-2-[3-[4-AMINO-3-(2-FLUORO-4-PHENOXY-PHENYL)PYRAZOLO[3,4-D]PYRIMIDIN-1-YL]PIPERIDINE-1-CARBONYL]-4-METHYL-4-[4-(OXETAN-3-YL)PIPERAZIN-1-YL]PENT-2-ENENITRILE” (priority 2023, published 2026).

Tested on: moderate-to-severe chronic spontaneous urticaria (CSU)
Experiment: Phase 2 CSU study: urticaria activity score over 7 days (UAS7)
Assay type: in vivo, human
Parameters: key to UAS7 Median / UAS7 Change from baseline Median / UAS7 change from baseline, Q1 / UAS7 change from baseline, Q3 / UAS7 change from baseline, Max / UAS7 Change from baseline LS Mean (SE): UAS7 points; daily UAS score ranges 0–6 points/day, over 7 days
Description: The study comprises a 12 week, randomized, double-blind, placebo-controlled, multi-center, dose-ranging efficacy and safety phase, followed by a 40 week open label extension (OLE) phase (see FIG. 1). The study consists of three phases and an optional OLE phase. […] Clinically, CSU is characterized by the spontaneous and recurrent appearance of pruritic hives. The proposed primary endpoints were the UAS7 at Week 12 in EU and EU reference countries and the ISS7 in the US. Regardless of where a participant was from, all assessments were the same. The UAS7 score is a composite score containing both the HSS7 and the ISS7. This allowed a global assessment of the two key components of urticaria: hives and itch. […] The UAS is a validated PRO measure. […] The daily UAS scores range from 0 to 6 point/day. […] Patients were to complete the UAS using the e-diary. […] The following secondary endpoints were to be analyzed using the same approach as for the primary endpoint: • Change from baseline in UAS7 at Week 4 • Change from baseline in UAS7 at Week 12 (for US and US reference countries) • Change from baseline in ISS7 at Week 12 (except US and US reference countries) • Change from baseline in HSS7 at Week 12 The following responder secondary endpoints were to be analyzed using the Cochran-Mantel-Haenszel test adjusted by region: • Proportion of participants with UAS7<6 at Week 12 • Proportion of participants with UAS7=0 at Week 12 Participants who received selected prohibited medications and/or rescue medications were to be considered as non-responders for time points after the medication usage. For other participants, all available data including those collected during the off-treatment period were to be used to determine the responder/non-responder status. Missing data were to be considered as non-responders.

[1] = Week 1, 400 mg QPM, Prior Omalizumab Use
[2] = Week 1, 400 mg QPM, omalizumab-naive participants
[3] = Week 1, 400 mg TID, ITT population
[4] = Week 1, 400 mg TID, Omalizumab-Naïve
[5] = Week 1, 400 mg TID, Prior Omalizumab Use
[6] = Week 1, 400 mg TID, omalizumab-naive participants
[7] = Week 2, 400 mg BID, ITT population
[8] = Week 2, 400 mg BID, Omalizumab-Naïve
[9] = Week 2, 400 mg BID, Prior Omalizumab Use
[10] = Week 2, 400 mg BID, omalizumab-naive participants
[11] = Week 2, 400 mg QPM, ITT population
[12] = Week 2, 400 mg QPM, Omalizumab-Naïve
[13] = Week 2, 400 mg QPM, Prior Omalizumab Use
[14] = Week 2, 400 mg QPM, omalizumab-naive participants

In the case of `CC(C)(C=C(C#N)C(=O)N1CCC[C@@H](n2nc(-c3ccc(Oc4ccccc4)cc3F)c3c(N)ncnc32)C1)N1CCN(C2COC2)CC1` [rilzabrutinib, (R)-2-[3-[4-amino-3-(2-fluoro-4-phenoxy-phenyl)pyrazolo[3,4-d]pyrimidin-1-yl]piperidine-1-carbonyl]-4-methyl-4-[4-(oxetan-3-yl)piperazin-1-yl]pent-2-enenitrile], the “UAS7 Percent change from baseline Mean (SD)” value (“UAS7 Percent change … (SD)” below) [1] is reported as −39.02 (NC) %, the “UAS7 Percent change from baseline Median” value [1] is reported as −39.02% and the “Non-responder, UAS7 reduction from baseline of 10 points or more” value (“Non-responder, UAS7 reduction” below) [2] is reported as 26 (70.3) n (%). The “OR for rilzabrutinib vs. placebo, UAS7 reduction of 10 points or more” value [2] was 1.510, the “RRD (%) for rilzabrutinib vs. placebo, UAS7 reduction of 10 points or more” value (shortened to “RRD (%) … UAS7 reduction of 10 points or more”) [2] was 8.2 % and the “Responder, UAS7 reduction from baseline of 10 points or more” value [2] was 11 (29.7) n (%). The “Non-responder, UAS7 reduction” value [3] was 18 (43.9) n (%), the “OR for rilzabrutinib vs. placebo, UAS7 reduction of 10 points or more” value [3] was 4.196 and the “RRD (%) … UAS7 reduction of 10 points or more” value [3] was 32.5 %. The “Responder, UAS7 reduction from baseline of 10 points or more” value [3] was 23 (56.1) n (%), the “UAS7 Change from baseline Mean (SD)” value [4] was −11.57 (10.61) and the “UAS7 Change from baseline Median” value [4] was −10.00. The “UAS7 Mean (SD)” value [4] was 17.77 (10.26), the “UAS7 Median” value [4] was 18.00 and the “UAS7 Percent change … (SD)” value [4] was −38.05 (33.56) %. The “UAS7 Percent change from baseline Median” value [4] was −30.95%, the “UAS7 Change from baseline Mean (SD)” value [5] was −20.86 (9.80) and the “UAS7 Change from baseline Median” value [5] was −21.00. For the same molecule, the “UAS7 Mean (SD)” value [5] was 12.17 (8.54), the “UAS7 Percent change … (SD)” value [5] was −63.75 (22.12) % and the “UAS7 Percent change from baseline Median” value [5] was −69.05%. For the same molecule, the “Non-responder, UAS7 reduction” value [6] was 17 (48.6) n (%), the “OR for rilzabrutinib vs. placebo, UAS7 reduction of 10 points or more” value [6] was 3.580 and the “RRD (%) … UAS7 reduction of 10 points or more” value [6] was 28.5 %. The “Responder, UAS7 reduction from baseline of 10 points or more” value [6] was 18 (51.4) n (%), the “Non-responder, UAS7 reduction” value [7] was 19 (46.3) n (%) and the “OR for rilzabrutinib vs. placebo, UAS7 reduction of 10 points or more” value [7] was 3.388. For the same molecule, the “RRD (%) … UAS7 reduction of 10 points or more” value [7] was 27.8 %, the “Responder, UAS7 reduction from baseline of 10 points or more” value [7] was 22 (53.7) n (%) and the “UAS7 Change from baseline Mean (SD)” value [8] was −10.10 (8.61). The “UAS7 Change from baseline Median” value [8] was −10.00, the “UAS7 Mean (SD)” value [8] was 19.59 (10.86) and the “UAS7 Median” value [8] was 18.10. The “UAS7 Percent change … (SD)” value [8] was −35.50 (31.03) %, the “UAS7 Percent change from baseline Median” value [8] was −35.71% and the “UAS7 Change from baseline Mean (SD)” value [9] was −14.00 (14.98). The “UAS7 Change from baseline Median” value [9] was −10.00, the “UAS7 Mean (SD)” value [9] was 19.00 (13.67) and the “UAS7 Median” value [9] was 23.00. For the same molecule, the “UAS7 Percent change … (SD)” value [9] was −40.50 (43.43) %, the “UAS7 Percent change from baseline Median” value [9] was −27.44% and the “Non-responder, UAS7 reduction” value [10] was 17 (48.6) n (%). For the same molecule, the “OR for rilzabrutinib vs. placebo, UAS7 reduction of 10 points or more” value [10] was 3.686, the “RRD (%) … UAS7 reduction of 10 points or more” value [10] was 28.9 % and the “Responder, UAS7 reduction from baseline of 10 points or more” value [10] was 18 (51.4) n (%). For the same molecule, the “Non-responder, UAS7 reduction” value [11] was 23 (60.5) n (%), the “OR for rilzabrutinib vs. placebo, UAS7 reduction of 10 points or more” value [11] was 2.169 and the “RRD (%) … UAS7 reduction of 10 points or more” value [11] was 16.6 %. The “Responder, UAS7 reduction from baseline of 10 points or more” value [11] was 15 (39.5) n (%), the “UAS7 Change from baseline Mean (SD)” value [12] was −7.67 (8.84) and the “UAS7 Change from baseline Median” value [12] was −5.00. The “UAS7 Mean (SD)” value [12] was 23.44 (8.97), the “UAS7 Median” value [12] was 23.00 and the “UAS7 Percent change … (SD)” value [12] was −23.23 (26.34) %. The “UAS7 Percent change from baseline Median” value [12] was −16.67%, the “UAS7 Change from baseline Mean (SD)” value [13] was −19.00 (NC) and the “UAS7 Change from baseline Median” value [13] was −19.00. The “UAS7 Mean (SD)” value [13] was 22.00 (NC), the “UAS7 Median” value [13] was 22.00 and the “UAS7 Percent change … (SD)” value [13] was −46.34 (NC) %. The “UAS7 Percent change from baseline Median” value [13] was −46.34%, the “Non-responder, UAS7 reduction” value [14] was 23 (62.2) n (%) and the “OR for rilzabrutinib vs. placebo, UAS7 reduction of 10 points or more” value [14] was 2.174. For the same molecule, the “RRD (%) … UAS7 reduction of 10 points or more” value [14] was 16.6 %, the “Responder, UAS7 reduction from baseline of 10 points or more” value [14] was 14 (37.8) n (%) and the “Non-responder, UAS7 reduction” value (Week 2, 400 mg TID, ITT population) was 13 (31.7) n (%).
